Like-named read-outs stand apart in the source and are kept apart here. Marks after values point to notes of the source that are not given here.
Experiments:
Ugt1a6 = test: Northern blot of liver Ugt1a6 mRNA after ip dosing; assay type: in vivo, mice; details: mean ± SEM
Description: (§1) Linking efficacy to biochemical parameters and a mechanism was limited in the initial study by only two parameters, [Se] and GPx activity. The in-vivo effects of selenazolidine compounds were then evaluated using, in addition to GPx, glutathione S-transferases (GSTs), quinone oxidoreductases (NQORs), UDP-glucuronosyltransferases (UGTs), and microsomal epoxide hydrolase (mEH). To investigate transcriptional changes of these classes of enzymes, it was necessary to develop a battery of cDNA probes for use in Northern blot analysis of RNA extracted from treated animals (Table 2).
(§2) Whether the selenaproline compounds had the ability to up-regulate the transcription of Phase II and/or other “protective” enzymes was first evaluated following a single dose of each (Table 3). […] The experiment was repeated but with a 7-day treatment regimen (Table 4), the time period for which the compounds were given in the diet before NNK administration in the tumor experiment reported in Table 1. […] With multiple doses, SCA induced Ugt1a9, an mRNA that was not changed with a single dose. […] The elevation in the Gst-mu transcript was unique to multiple OSCA treatment. The elevation of the GST-alpha mRNA was also seen with SCA treatment. Microsomal epoxide hydrolase mRNA was robustly elevated by multiple doses of all three selenaproline compounds, an effect not anticipated from the single dose experiment where not even minor changes were apparent.

Ugt1a1 = test: Northern blot of liver Ugt1a1 mRNA after ip dosing; assay type: in vivo, mice; details: mean ± SEM
Description: as §1, §2

Gst-alpha = test: Northern blot of liver Gst-alpha mRNA after ip dosing; assay type: in vivo, mice; details: mean ± SEM
Description: as §1, §2

mEH = test: Northern blot of liver mEH mRNA after ip dosing; assay type: in vivo, mice; details: mean ± SEM
Description: as §1, §2

[1] = sALT (hepatotoxicity) after 7 daily ip doses; assay type: in vivo; design: unit not given here; details: 7 daily doses ip, 1.25 mg Se/kg, with corn oil; untreated mice 37.5 ± 2.9
Source text: (§3) Many of the mRNA changes seen with a single dose were not sustained with multiple dosing. Changes in Ugt transcripts after multiple dosing were noticeably absent. Unique to BSCA among the four new compounds investigated was its ability to induce Gst-alpha, Gst-mu and GPx mRNAs. For the Gst-alpha transcripts, which appeared elevated by corn oil, the BSCA increase was much greater than the vehicle alone (8-fold versus 2-fold) and was statistically significant (p<0.05). BSCA shared with PhOHSCA the ability to elevate mEH mRNA.

GPx [2] = test: Northern blot of liver GPx mRNA after ip dosing; assay type: in vivo, mice; details: mean ± SEM
Description: as §1, §2

Ugt1a9 = test: Northern blot of liver Ugt1a9 mRNA after ip dosing; assay type: in vivo, mice; details: for Ugt1a9 mRNA: mean ± SEM
Description: as §1, §2

Gst-mu = test: Northern blot of liver Gst-mu mRNA after ip dosing; assay type: in vivo, mice; details: mean ± SEM
Description: as §1, §2

[3] = tested on: 'protective' enzyme mRNAs; test: Northern blot of 'protective' enzyme mRNAs (all probes) after ip dosing; assay type: in vivo, mice; details: 7 daily doses ip, with corn oil
Description: as §1, §3

E. coli AB1157 [4] = test: Toxicity in E. coli AB1157 (colony forming ability); assay type: cell-based
Description: (§4) A well characterized bacterial system was used as an initial screen for radioprotective activity of the novel compounds. A single colony of the bacteria, growing on a plate of LB medium (10 g tryptone, 5 g yeast extract, plus 5 g NaCl in 1 L water), was inoculated into 2 mL LB and incubated overnight. 20 mL LB medium were then inoculated with 600 μL of the overnight culture, and incubated with shaking at 37° C., 250 rpm. The cells were collected and washed with phosphate buffered saline. At this point the bacteria could be irradiated, treated with drug, etc., as outlined below. After dilution of the treated cells to 100 cells per 100 μL, they are plated out and incubated overnight. Cell viability is then measured by colony forming ability.
The toxicity of the compounds of interest in this system was explored.

E. coli AB1157 [5] = test: Radioprotection in E. coli AB1157; assay type: cell-based; details: E. coli AB1157, agent 1 hour before irradiation at 0.6 kGy
Description: Radioprotection in E. coli AB1157
as §4
Growth curves were generated for the bacteria in the absence of any treatment to provide experience with basic handling as well as important baseline information. The radiation dose response of the system was investigated irradiating bacterial cultures in a Shepherd Mark I ^137Cs irradiator over a dose range of 0 to 1 kGy. The dose-response curves are linear and reproducible from day to day.
Radioprotection experiments were also conducted in the bacterial system. […] Surviving fraction compared to that seen in control (untreated) cells, which were not irradiated, was then calculated.

GPx [6] = test: Hepatic cytosolic GPx (H202) activity after 7 daily ip doses; assay type: in vivo, mice; details: 7 daily doses ip, hepatic cytosol; naive 894 ± 36
GST = test: Hepatic cytosolic GST (CDNB) activity after 7 daily ip doses; assay type: in vivo, mice; details: 7 daily doses ip, hepatic cytosol; naive 5248 ± 503
[7] = Body weight gain and liver weight in four-month feeding study; assay type: in vivo; details: mice, diet 15 ppm Se, NNK
Description: (§5) Where indicated, mice (16 g) were given diets fortified with SCA, MSCA or OSCA (15 ppm Se) for 1 week prior to NNK (10 umol, ip). Two other groups received the unmodified AIN-76A diet, with and without NNK administration. All groups were maintained on their pretreatment diet until the animals were sacrificed after 16 weeks. Liver GPx activity is expressed as μmol NADPH oxidized [in regenerating GSH]/min/mg 10,000 g×20 min supernatant protein; RBC activity as μmol/min/mg RBC lysate hemoglobin.

GPx [8] = test: Hepatic and RBC (tButylOOH) GPx activity in four-month feeding study; assay type: in vivo; details: mice, diet 15 ppm Se, NNK
Description: Three novel selenazolidines, 2-methyl-, 2-oxo- and 2-unsubstituted (i.e., selenaproline) selenazolidine-4[R]-carboxylic acid (MSCA, OSCA, and SCA respectively) that had been synthesized as prodrugs of selenocysteine were evaluated for their potential to act as cancer chemopreventive agents. [Se] and GPx activity were evaluated.
as §5

[9] = 7 daily doses ip, 1.25 mg Se/kg, with corn oil, liver RNA 24 hours after the last dose
[10] = 1 dose ip, 1.25 mg Se/kg in corn oil, liver RNA 24 hours after dosing
[11] = E. coli AB1157, cell viability by colony forming ability
[12] = 1 dose ip, 1.25 mg Se/kg, liver RNA 24 hours after dosing
[13] = 7 daily doses ip, 1.25 mg Se/kg, liver RNA 24 hours after the last dose

| Compound | Ugt1a6 mRNA (Ugt1a6; [9]) | Ugt1a1 mRNA (Ugt1a1; [9]) | Gst-alpha mRNA (Gst-alpha; [10]) | Gst-alpha mRNA (Gst-alpha; [9]) | mEH mRNA (mEH; [10]) | sALT [1] | GPx mRNA (GPx [2]; [9]) | Ugt1a9 mRNA (Ugt1a9; [10]) | Ugt1a9 mRNA (Ugt1a9; [9]) | Gst-mu mRNA (Gst-mu; [10]) | Gst-mu mRNA (Gst-mu; [9]) | Toxicity in the bacterial system (E. coli AB1157 [4]; [11]) | other results |
| --- | --- | --- | --- | --- | --- | --- | --- | --- | --- | --- | --- | --- | --- |
| 2-(2-hydroxyphenyl)-SCA [PhOHSCA] | 0.99 ± 0.14 fold change from naive | 0.77 ± .04 fold change from naive | 1.49 ± 0.22 fold change from naive | 1.91 ± 0.71 fold change from naive | 1.38 ± 0.48 fold change from naive | 42.4 ± 3.0 | 1.51 ± 0.50 fold change from naive | 1.65 ± 0.32 fold change from naive | 1.06 ± .14 fold change from naive | 1.18 ± 0.32 fold change from naive | 1.54 ± 0.23 fold change from naive | – | Ugt1a9 transcript expression compared to the corn oil effect (Ugt1a9; 1 dose ip, in corn oil, comparison with corn oil alone): significantly reduced |
| O=C(O)C1C[Se]C(C2CCCCC2)N1 (mixture of isomers) [ChSCA, 2-cyclohexyl-SCA] | 1.22 ± 0.17 fold change from naive | 1.20 ± 0.17 fold change from naive | 1.73 ± 0.20 fold change from naive | 1.99 ± 0.77 fold change from naive | 1.34 ± 0.41 fold change from naive | 40.0 ± 1.7 | 2.26 ± 0.66 fold change from naive | 3.04 ± 0.55 fold change from naive | 1.16 ± 0.13 fold change from naive | 1.20 ± 0.15 fold change from naive | 1.32 ± 0.21 fold change from naive | – | Induction of 'protective' enzyme mRNAs (any) [3]: failed to induce any mRNAs; mEH mRNA (mEH; [9]): 1.31 ± 0.19 fold change from naive; GPx mRNA (GPx [2]; [10]): 1.20 ± 0.15 fold change from naive; Ugt1a9 mRNA (Ugt1a9; 1 dose ip, 1.25 mg Se/kg in corn oil, liver RNA 24 hours after dosing, listed as CnSCA): statistically elevated |
| O=C(O)C1C[Se]C(c2ccccc2)N1 (mixture of isomers) [PhSCA, 2-phenyl-SCAS] | 0.96 ± 0.04 fold change from naive | 1.32 ± 0.12 fold change from naive | 0.63 ± 0.14 fold change from naive | 2.29 ± 0.68 fold change from naive | 0.98 ± 0.27 fold change from naive | 37.3 ± 1.4 | 1.46 ± 0.35 fold change from naive | 2.14 ± 0.54 fold change from naive | 0.83 ± 0.08 fold change from naive | 0.74 ± 0.16 fold change from naive | 1.01 ± 0.27 fold change from naive | – | Induction of 'protective' enzyme mRNAs (any) [3]: failed to induce any mRNAs; Ugt1a6 mRNA (Ugt1a6; [10]): 1.78 ± 0.54 fold change from naive; Ugt1a1 mRNA (Ugt1a1; [10]): 1.41 ± 0.30 fold change from naive; mEH mRNA (mEH; [9]): 0.80 ± 0.15 fold change from naive; GPx mRNA (GPx [2]; [10]): 0.74 ± 0.16 fold change from naive |
| NCCCN1CCSC1=O [2-oxo prodrug, 3-(3-Aminopropyl)-2-thiazolidinone] | – | – | – | – | – | – | – | – | – | – | – | neither WR-1065 nor its 2-oxo prodrug produced any toxicity | – |
| O=C1NCCS1 [2-oxocysteamine prodrug, 2-Thiazolidinone] | – | – | – | – | – | – | – | – | – | – | – | completely eliminated the profound toxicity observed with cysteamine itself | – |
| NC1CCSC1=O (stereo not shown) [HCTL, homocysteine thiolactone] | – | – | – | – | – | – | – | – | – | – | – | – | Radioprotection (surviving fraction) (E. coli AB1157 [5]): greatest amount of protection |
| O=C1N[C@H](C(=O)O)C[Se]1 [OSCA, 2-Oxoselenazolidine-4(R)-carboxylic acid] | – | – | – | – | – | – | – | – | – | – | – | – | GPx (H202) activity (GPx [6]): 880 ± 72 nmol/mg cytosol (100,000 g supernatant) protein/min; GST (CDNB) activity (GST): 6887 ± 1142 nmol/mg cytosol (100,000 g supernatant) protein/min; Body wt gain (%) [7]: 39.9* %; Liver weight [7]: 1.02 ± 0.02 g; Gst-alpha mRNA (Gst-alpha; [12]): 1.61 ± 0.53 fold change from naive; mEH mRNA (mEH; [12]): 0.88 ± 0.19 fold change from naive; mEH mRNA (mEH; [13]): 2.91 ± 1.48 fold change from naive; GPx (1.5 kb) mRNA (GPx [2]; [12]): 0.80 ± 0.22 fold change from naive; GPx mRNA (GPx [2]; [13]): 1.13 ± 0.39 fold change from naive; RBC (tButylOOH) GPx (GPx [8]; RBC): 281 ± 24 μmol/min/mg RBC lysate hemoglobin; Hepatic (tButylOOH) GPx (GPx [8]; liver): 518 ± 59 μmol NADPH oxidized/min/mg 10,; Gst-mu mRNA (Gst-mu; [12]): 1.38 ± 0.33 fold change from naive |
| NCCCNCCS [WR-1065, reference compound] | – | – | – | – | – | – | – | – | – | – | – | neither WR-1065 nor its 2-oxo prodrug produced any toxicity | Radioprotection (surviving fraction) (E. coli AB1157 [5]): greatest amount of protection |
| NCCS [cysteamine, reference compound] | – | – | – | – | – | – | – | – | – | – | – | – | Toxicity in the bacterial system (E. coli AB1157 [4]): profound toxicity |
